Common to all, as to assay type: physicochemical
Series [1] in a line: Evaluation of hygroscopicity: water content by Karl Fisher method under various humidity conditions. The conditions noted are these: 25° C.
The nature of series [2]: Thermal stability in a solid state, acceleration test at 60° C. (HPLC content). The protocol: High Performance Liquid Chromatography (HPLC) analysis was conducted under the following conditions:
Detector: UV absorption (237 nm)
Column: Octadesyl silica gel C18 (4.6 mm×150 mm, 5 μm)
Mobile phase: Potassium dihydrogen phosphate monobasic (0.03 M): Methanol=4:6 (by volume)

Series [3] can be described thus: Stability in a liquid state (distilled water, 25° C., 4 weeks, protected from light). Conditions: dissolved in distilled water, 4 weeks at 25° C. The source says: The observation was made under the same conditions as in the HPLC analysis for evaluating the thermal stability of samples in a solid state.
Series [4] in a line: Evaluation of photostability (exposed to sunlight at 25° C. for 4 weeks, HPLC content). The conditions noted are these: for Colour of the surface after exposure to light: white at initial stage, exposed to sunlight at 25° C., 4 weeks; for Content (HPLC): stored at 25° C. for 4 weeks with light exposure. The protocol: To evaluate photostability, a change in the content (%, HPLC) of each sample was observed under the same HPLC analysis conditions as in the evaluation of thermal stability. Photostability is quite an important factor in therapeutic agents for treating hypertension because they are administered to patients over a prolonged period of dosage.

Counter-ions that a name gives are not always drawn.

On to `CCOC(=O)C1=C(COCCN)NC(C)=C(C(=O)OC)C1c1ccccc1Cl` (stereo not drawn) [Adipic acid salt, crystalline adipic acid salt of amlodipine], for which the “Water content (Karl Fisher method)” value in series [1] (initial stage) is given as 0.10%; in series [1] (relative humidity 25%, 1 week), 0.10%; in series [1] (relative humidity 60%, 1 week) it was 0.10%; in series [1] (relative humidity 75%, 1 week), 0.14%; in series [1] (relative humidity 95%, 1 week) it was 0.16%. Also, the “Content (HPLC)” value turned out to be 99.8% in series [2] (60° C., 1 week); 99.7% in series [2] (60° C., 2 weeks); 99.7% in series [2] (60° C., 4 weeks); 99.8% in series [2] (initial stage). In addition, the “Change in the content (HPLC)” value in series [3] is recorded as “no significant changes in the content”. Moreover, the Decomposed products result in series [3] is reported as “no decomposed products”. Moreover, the “Colour of the surface after exposure to light” value in series [4] was “remained white”.

For the compound `CCOC(=O)C1=C(COCCN)NC(C)=C(C(=O)OC)C1c1ccccc1Cl` (stereo not drawn) [Besylate salt, Amlodipine Besylate, reference compound], the “Water content (Karl Fisher method)” value is 0.14% in series [1] (initial stage); 0.10% in series [1] (relative humidity 25%, 1 week); 0.09% in series [1] (relative humidity 60%, 1 week); 0.15% in series [1] (relative humidity 75%, 1 week); 0.17% in series [1] (relative humidity 95%, 1 week). For the same compound, the “Content (HPLC)” value in series [2] (60° C., 1 week) worked out at 99.6%; in series [2] (initial stage) it was 99.6%; in series [4], 82.5%. Moreover, the “Change in the content (HPLC)” value in series [3] is recorded as “no significant changes in the content”. Also, in series [3], the Decomposed products entry is listed as “no decomposed products”. Moreover, in series [4], the “Colour of the surface after exposure to light” value was “turned yellow”.

In the case of `CCOC(=O)C1=C(COCCN)NC(C)=C(C(=O)OC)C1c1ccccc1Cl` (stereo not drawn) [Tosylate salt, Amlodipine p-Toluene Sulfonate], the “Content (HPLC)” value in series [4] is listed as 72.0%.

The values are drawn from patent publication US7015238B2, “Crystalline organic acid salt of amlodipine” (CJ Corp., priority 2002, dated 2006).
